Source: publication PMC9050923, “6,N^2-Diaryl-1,3,5-triazine-2,4-diamines: synthesis, antiproliferative activity and 3D-QSAR modeling” (RSC Advances, 2020)

Tests used:
Assay type in all cases: cell-based
MDA-MB231 = assay: MTT assay, MDA-MB231 breast cancer cells; conditions: Homo sapiens, MDA-MB-231; 10 μM, 72 h after the treatment, MTT, mean of three independent experiments; read-out: Percentage of cell viability MDA-MB231
Procedure: (§1) The prepared compounds 1–126 were tested on three breast cancer cell lines namely, MDA-MB231, SKBR-3 and MCF-7 using MTT assay. SKBR-3 and MCF-7 cell lines are estrogen and progesterone hormone positive cell lines often used as a model for the hormone therapy.[18] MDA-MB231 is triple negative breast cancer cell line, which is negative to estrogen and progesterone receptors and human epidermal growth factor receptor 2, a perfect model for chemotherapy.[18] Initially, all the prepared compounds 1–126 were tested on these three cancer cell lines at the screening concentration (10 μM) and percentage of cell viability was calculated 72 h after the treatment (Table 1).
(§2) The growth inhibitory effect of the compounds was determined on breast tumor cell line (MDA-MB231, SKBR-3 and MCF-7) at different concentrations with methotrexate and nilotinib as positive controls (Table 2).
(§3) The cytotoxic activity of 6,N^2-diaryl-1,3,5-triazine-2,4-diamines (1–126) was evaluated against three breast carcinoma cell lines (MDA-MB231, SKBR-3, and MCF-7) and normal breast cell line (MCF-10A) by MTT assay.[22] All cells were obtained from the American Type Culture Collection and were grown in 10% fetal bovine serum and 1% pen-strep antibiotic supplemented media (DMEM for MDA-MB231 and SKBR-3, RPMI for MCF-7, and MEGM for MCF-10A). For MTT assay, 20 000 to 75 000 cells per mL (based on the doubling time for each cell line) were seeded in 96 well plates and incubated for 24 h at 37 °C in 5% CO2 incubator. Then, compounds at different concentrations were added followed by the incubation at 37 °C for 72 h. After that, MTT solution (0.5 mg mL^−1) was added and the plates were incubated for another 4 h. The supernatant was then discarded and 100 μL of DMSO was added to each well. The plates were then read by Tecan NanoQuant (model: infinite m200 pro) plate reader and absorbance was measured at 570 nm. GI50 values were calculated using sigmoidal concentration–response curves (see ESI ^†) generated using the GraphPad Prism 7 program. Three independent experiments were carried out and the data were represented as mean of the three experiments.

MCF-7 = assay: MTT assay, MCF-7 breast cancer cells; conditions: Homo sapiens, MCF7, 10 μM, 72 h after the treatment, mean of three independent experiments, read-out: Percentage of cell viability MCF-7
Procedure: as §1, §2, §3

SKBR-3 = assay: MTT assay, SKBR-3 breast cancer cells; conditions: Homo sapiens, SK-BR-3; 10 μM, 72 h after the treatment, MTT, mean of three independent experiments; read-out: Percentage of cell viability SKBR-3
Procedure: as §1, §2, §3

| Compound | viability at 10 µM (MDA-MB231) [%] | viability at 10 µM (MCF-7) [%] | viability at 10 µM (SKBR-3) [%] |
| --- | --- | --- | --- |
| COc1ccc(Nc2nc(N)nc(-c3ccc(Br)cc3)n2)cc1 [Compound 52] | 56 | 100 | 91 |
| Cc1cccc(-c2nc(N)nc(Nc3ccc(F)cc3)n2)c1 [Compound 53, N ^2-(4-Fluorophenyl)-6-(3-methylphenyl)-1,3,5-triazine-2,4-diamine] | 100 | 78 | 100 |
| Cc1cccc(-c2nc(N)nc(Nc3ccc(Cl)cc3)n2)c1 [Compound 54] | 100 | 76 | 93 |
| Cc1cccc(-c2nc(N)nc(Nc3ccc(Br)cc3)n2)c1 [Compound 55] | 83 | 75 | 96 |
| COc1ccc(Nc2nc(N)nc(-c3cccc(C)c3)n2)cc1 [Compound 57, N ^2-(4-Methoxyphenyl)-6-(3-methylphenyl)-1,3,5-triazine-2,4-diamine] | 91 | 75 | 90 |
| Cc1cccc(-c2nc(N)nc(Nc3ccc(C(C)C)cc3)n2)c1 [Compound 59, N ^2-(4-Isopropylphenyl)-6-(3-methylphenyl)-1,3,5-triazine-2,4-diamine] | 87 | 76 | 93 |
| Cc1ccc(-c2nc(N)nc(Nc3ccccc3)n2)cc1 [Compound 60] | 84 | 100 | 100 |
| Cc1ccc(-c2nc(N)nc(Nc3ccc(Br)cc3)n2)cc1 [Compound 63] | 87 | 93 | 100 |
| Cc1ccc(Nc2nc(N)nc(-c3ccc(C)cc3)n2)cc1 [Compound 64] | 59 | 86 | 92 |
| COc1ccc(Nc2nc(N)nc(-c3ccc(C)cc3)n2)cc1 [Compound 66] | 83 | 100 | 89 |
| Cc1ccc(-c2nc(N)nc(Nc3ccc(OC(F)(F)F)cc3)n2)cc1 [Compound 67] | 92 | 93 | 84 |
| Cc1ccc(-c2nc(N)nc(Nc3ccc(C(C)C)cc3)n2)cc1 [Compound 68] | 76 | 100 | 91 |
| Cc1ccc(-c2nc(N)nc(Nc3cccnc3)n2)cc1 [Compound 69] | 74 | 88 | 79 |
| COc1ccc(-c2nc(N)nc(Nc3ccc(F)cc3)n2)cc1 [Compound 72] | 68 | 100 | 100 |
| COc1ccc(-c2nc(N)nc(Nc3ccc(Cl)cc3)n2)cc1 [Compound 75] | 99 | 100 | 100 |
| COc1ccc(-c2nc(N)nc(Nc3ccc(Br)cc3)n2)cc1 [Compound 76] | 96 | 91 | 100 |
| COc1ccc(-c2nc(N)nc(Nc3ccc(OC(F)(F)F)cc3)n2)cc1 [Compound 79] | 74 | 95 | 84 |
| COc1ccc(-c2nc(N)nc(Nc3ccc(C(C)C)cc3)n2)cc1 [Compound 80] | 92 | 100 | 86 |
| Nc1nc(Nc2ccccc2)nc(-c2ccc(C(F)(F)F)cc2)n1 [Compound 82] | 55 | 96 | 97 |
| Nc1nc(Nc2ccccc2F)nc(-c2ccc(C(F)(F)F)cc2)n1 [Compound 83] | 55 | 93 | 71 |
| Nc1nc(Nc2ccc(Cl)cc2)nc(-c2ccc(C(F)(F)F)cc2)n1 [Compound 85] | 90 | 99 | 77 |
| Cc1ccc(Nc2nc(N)nc(-c3ccc(C(F)(F)F)cc3)n2)cc1 [Compound 86] | 54 | 83 | 95 |
| COc1ccccc1Nc1nc(N)nc(-c2ccc(C(F)(F)F)cc2)n1 [Compound 87] | 63 | 100 | 85 |

| Compound | viability at 10 µM (MDA-MB231) [%] | viability at 10 µM (MCF-7) [%] | viability at 10 µM (SKBR-3) [%] |
| --- | --- | --- | --- |
| COc1ccc(Nc2nc(N)nc(-c3ccc(C(F)(F)F)cc3)n2)cc1 [Compound 88] | 81 | 100 | 86 |
| Nc1nc(Nc2ccccc2)nc(-c2ccc(OC(F)(F)F)cc2)n1 [Compound 89] | 59 | 95 | 90 |
| Nc1nc(Nc2ccccc2F)nc(-c2ccc(OC(F)(F)F)cc2)n1 [Compound 90] | 60 | 90 | 80 |
| Nc1nc(Nc2ccccc2Cl)nc(-c2ccc(OC(F)(F)F)cc2)n1 [Compound 92] | 74 | 96 | 86 |
| Nc1nc(Nc2ccc(Br)cc2)nc(-c2ccc(OC(F)(F)F)cc2)n1 [Compound 93] | 83 | 90 | 96 |
| Cc1ccc(Nc2nc(N)nc(-c3ccc(OC(F)(F)F)cc3)n2)cc1 [Compound 94] | 79 | 97 | 87 |
| COc1ccc(Nc2nc(N)nc(-c3ccc(OC(F)(F)F)cc3)n2)cc1 [Compound 96] | 69 | 87 | 88 |
| Nc1nc(Nc2ccc(OC(F)(F)F)cc2)nc(-c2ccc(OC(F)(F)F)cc2)n1 [Compound 97] | 92 | 100 | 80 |
| CC(C)c1ccc(Nc2nc(N)nc(-c3ccc(OC(F)(F)F)cc3)n2)cc1 [Compound 98] | 100 | 95 | 90 |
| CC(C)c1ccc(Nc2nc(N)nc(-c3ccc(N(C)C)cc3)n2)cc1 [Compound 104] | 70 | 100 | 87 |
| CC(C)(C)c1ccc(-c2nc(N)nc(Nc3ccccc3)n2)cc1 [Compound 105] | 74 | 96 | 100 |
| CC(C)(C)c1ccc(-c2nc(N)nc(Nc3ccc(F)cc3)n2)cc1 [Compound 106] | 97 | 88 | 84 |
| CC(C)(C)c1ccc(-c2nc(N)nc(Nc3ccc(Cl)cc3)n2)cc1 [Compound 107] | 100 | 98 | 92 |
| CC(C)(C)c1ccc(-c2nc(N)nc(Nc3ccc(Br)cc3)n2)cc1 [Compound 108] | 59 | 99 | 98 |
| COc1ccc(Nc2nc(N)nc(-c3ccc(C(C)(C)C)cc3)n2)cc1 [Compound 109] | 91 | 93 | 85 |
| Nc1nc(Nc2ccc(Br)cc2)nc(-c2ccc(OCc3ccccc3)cc2)n1 [Compound 112] | 82 | 97 | 93 |
| Cc1ccc(Nc2nc(N)nc(-c3ccc(OCc4ccccc4)cc3)n2)cc1 [Compound 113] | 82 | 100 | 94 |
| Nc1nc(Nc2ccc(OC(F)(F)F)cc2)nc(-c2ccc(OCc3ccccc3)cc2)n1 [Compound 114] | 71 | 100 | 87 |
| Nc1nc(Nc2ccccc2)nc(-c2cccs2)n1 [Compound 115] | 100 | 91 | 87 |
| Nc1nc(Nc2ccccc2F)nc(-c2cccs2)n1 [Compound 116, N ^2-(2-Fluorophenyl)-6-(thiophen-2-yl)-1,3,5-triazine-2,4-diamine] | 98 | 90 | 78 |
| Nc1nc(Nc2ccc(F)cc2)nc(-c2cccs2)n1 [Compound 117] | 100 | 92 | 86 |
| Nc1nc(Nc2ccccc2Cl)nc(-c2cccs2)n1 [Compound 118] | 100 | 91 | 78 |
| Nc1nc(Nc2ccc(Cl)cc2)nc(-c2cccs2)n1 [Compound 119] | 100 | 98 | 89 |
